In data set [1] the target is T1, E. coli DHFR (Escherichia coli, UniProt P0ABQ4). In kind it is biochemical. The note with it: for inhibition at 1 mM inhibitor concentration (in words): E. coli DHFR.
Data set [2] relates to cancer cells. The note with it: previous study; cited from earlier work.
For data set [3] the following is noted: previous study; cited from earlier work.
A short description of data set [4]: Solubility in water.
Data set [5] addresses T2, human DHFR (Homo sapiens, UniProt P00374).
T2 sequence (P00374 1-187): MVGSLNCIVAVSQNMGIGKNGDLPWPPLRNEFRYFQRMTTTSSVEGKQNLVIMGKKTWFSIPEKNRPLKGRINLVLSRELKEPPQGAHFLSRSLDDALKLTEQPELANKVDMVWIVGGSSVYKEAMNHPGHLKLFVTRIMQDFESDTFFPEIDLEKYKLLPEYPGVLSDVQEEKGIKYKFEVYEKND
Format: biochemical.

For data set [6], the target named is T1, E. coli DHFR. Briefly: Inhibition kinetics: substrate titration at fixed inhibitor concentrations. Format: biochemical.
The target of data set [7] is T1, E. coli DHFR. In words: Progress curve analysis, slow tight binding. In kind it is biochemical.
Data set [8] concerns the target T2, human DHFR. In words: Progress curve analysis, slow tight binding, human DHFR. Format: biochemical. As to conditions: time course of NADPH depletion.
Data set [9] has as its target T2, human DHFR. As to conditions: product inhibition; cited from earlier work.
Data set [10] has as its target T1, E. coli DHFR. The note with it: product inhibition; cited from earlier work.
Setting [11] is: IC-50, human DHFR 12.4 nM, 60 μM NADPH, 50 μM H2F, 100 mM HEPES pH 7.3.

Where two headings read alike, the source gives them in different places.

The values that follow come from publication PMC4445455 (The FEBS journal, 2015).

T1 sequence (P0ABQ4 whole entry): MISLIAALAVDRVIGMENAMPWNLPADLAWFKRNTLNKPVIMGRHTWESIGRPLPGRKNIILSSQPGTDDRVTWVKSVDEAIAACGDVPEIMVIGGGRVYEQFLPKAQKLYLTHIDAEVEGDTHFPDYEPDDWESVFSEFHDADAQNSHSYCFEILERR

With `Nc1ccc(-c2nc3nc(N)nc(N)c3nc2-c2ccc(N)cc2)cc1` [NSC61642, 6,7-bis (4-aminophenyl) pteridine-2,4-diamine, reference compound], the “inhibition at 1 mM inhibitor concentration (in words)” value (from here on “inhibition”) in data set [1] was “unambiguous inhibition”.
Usually IC50 stands for the concentration needed to halve the response being measured. What is called Ki is the equilibrium dissociation constant of an inhibitor or competing ligand from its target. Low readings indicate tighter binding, high ones weaker binding. On to `Nc1ccc(NC(=O)c2ccc(C(=O)Nc3ccc(N)cc3)cc2)cc1` [NNBABD, N,N'-bis(4-aminophenyl)benzene-1,4-dicarboxamide], for which the “activity against cancer cells” value in [2] is given as “didn't show”. Besides, the IC50 is 176.5 ± 1.1 µM in [1] and 254.5 ± 1.79 µM in data set [5] (setting [11]). Also, the Ki in data set [1] worked out at 10.9 ± 2.16 µM; in data set [5], 5.16 ± 1.41 µM. Also, the “inhibition” value in data set [1] is “almost complete inhibition”. Moreover, the bactericidal activity result in data set [3] is “didn't show”. In data set [4], the solubility in water result is given as “sparsely soluble in water”.
Turning to `C#CCC(Cc1cnc2nc(N)nc(N)c2n1)c1ccc(C(=O)N[C@@H](CCC(=O)O)C(=O)O)cc1` (stereo partly drawn) [NSC754230, pralatrexate, reference compound], the “inhibition” value in [1] is recorded as “unambiguous inhibition”.
In the case of `Nc1nc2[nH]cc(CCc3ccc(C(=O)N[C@@H](CCC(=O)O)C(=O)O)cc3)c2c(=O)[nH]1` [NSC698037, pemetrexed, reference compound], the “inhibition” value in data set [1] is “unambiguous inhibition”.
By Kd is commonly meant the free concentration of one partner at which half of the binding sites on the other are occupied at equilibrium, for simple one-to-one binding. As a reminder, the kon is the rate constant with which the complex forms. A high value points to faster complex formation. For the molecule `Nc1nc(N)c2c(ccc3[nH]ccc32)n1` [PQD, 7H-Pyrrolo(3,2-f)quinazoline-1,3-diamine, reference compound], the figures for the Ki in [6], in data set [1] and in data set [5] were 0.00318 ± 0.00051 µM, 0.0042 ± 0.0005 µM and 0.0934 ± 0.009 µM, respectively. Moreover, in [6] (uncompetitive inhibition, NADPH titrated), the αKi came out at 72.17 ± 4.23 nM. In addition, the Kd in data set [7] is 0.00448 ± 0.00063 µM. This molecule also gave a kon in data set [7] of 350000 M⁻¹ s⁻¹. The “mode of inhibitor binding (time dependence, in words)” value in data set [7] (E. coli DHFR progress curves) is listed as “classical tight-binding reversible inhibition”; in data set [8], “didn't show any slow-onset of inhibition”. The same molecule gave a koff in data set [7] (time-dependent inactivation, 50 μM H2F, 60 μM NADPH) of 0.094 ± 0.010 min^1. In addition, the IC50 in [1] came to 0.106 ± 0.0012 µM; in data set [5] (IC-50, human DHFR) it was 3.09 ± 0.17 µM; in [5] (setting [11]), 3.087 ± 0.0165 µM. In addition, the “inhibition” value in data set [1] is “unambiguous inhibition”. Further, the “fold reduction in potency (IC-50) for human DHFR vs E. coli DHFR” value in data set [5] (selectivity human/E. coli) was found to be 30 fold.
Consider `O=C(Nc1ccc(Oc2ccc(NC(=O)Nc3ccc([N+](=O)[O-])cc3)cc2)cc1)Nc1ccc([N+](=O)[O-])cc1` [NNCPPU, 1-(4-nitrophenyl)-3-[4-[4-[(4-nitrophenyl)carbamoylamino]phenoxy]phenyl]urea], for which, in [2], the “activity against cancer cells” value is “didn't show”. Besides, in [1], half-maximal inhibition (IC50) required 36.6 ± 1.1 µM, the Ki was 2.06 ± 0.378 µM and the “inhibition” value is “almost complete inhibition”. Also, in [3], the bactericidal activity entry is “didn't show”. In addition, in data set [4], the solubility in water entry is “sparsely soluble in water”. For the same molecule, the Ki in data set [5] was determined as 1.97 ± 0.329 µM. Besides, half-maximal inhibition in data set [5] (setting [11]) (IC50) required 68.9 ± 1.36 µM.
In data set [1], `C1=Cc2ccccc2Nc2ccccc21` [ISB, 2,2'-Iminostilbene] gave an IC50 of 587.8 ± 1.2 µM and a Ki of 35.2 ± 5.36 µM. For the same molecule, in [4], the solubility in water entry is “sparsely soluble in water”. Besides, the IC50 in [5] (IC-50, human DHFR, table footnote to ND) was above 2000 µM.
For the molecule `NC(=O)c1ccc[n+]([C@@H]2O[C@H](COP(=O)([O-])OP(=O)(O)OC[C@H]3O[C@@H](n4cnc5c(N)ncnc54)[C@H](OP(=O)(O)O)[C@@H]3O)[C@@H](O)[C@H]2O)c1` [NADP^+], the IC50 was around 620 µM in data set [9] and around 5000 µM in data set [10].
